Test results published in patent publication US20040010001A1, “Methods and compositions for modulating cell proliferation and cell death” (priority 1999, published 2004).
pIC50: −log10 of the molar value. Read-outs that look alike come from different tables or passages of the source.

Test system: Human prostate PC3 tumor cells
Test: aFGF/bFGF-induced resistance and reversal by suramin, sulforhodamine B assay
Format: cell-based
Conditions: for Resistance, Folds, aFGF 0.3 ng/ml + bFGF 1 ng/ml / Resistance, Folds, aFGF 1 ng/ml + bFGF 3 ng/ml: no suramin, relative to control
Experimental: The experimental conditions are described briefly below. […] Cell number was measured using the sulforhodamine B assay which measures the total protein concentration. […] The FGF-induced resistance was dependent on the FGF concentrations, with a higher resistance at higher FGF concentrations.

[1] = Homo sapiens, read-out: IC50, Control (drug treatment only, without FGF treatment), No suramin, drug 96 hours
[2] = Homo sapiens, read-out: IC50, aFGF 0.3 ng/ml + bFGF 1 ng/ml, No suramin, FGF pretreatment 96 hours, drug 96 hours
[3] = Homo sapiens, read-out: IC50, aFGF 1 ng/ml + bFGF 3 ng/ml, No suramin, FGF pretreatment 96 hours, drug 96 hours
[4] = read-out: IC50, Control (without FGF treatment), Suramin, 15 μM, drug 96 hours with 15 μM suramin
[5] = read-out: IC50, aFGF 0.3 ng/ml + bFGF 1 ng/ml, With suramin, FGF pretreatment 96 hours, drug 96 hours with 15 micromolar suramin
[6] = read-out: IC50, aFGF 1 ng/ml + bFGF 3 ng/ml, With suramin, FGF pretreatment 96 hours, drug 96 hours with 15 micromolar suramin

Row | pIC50 [1] | pIC50 [2] | pIC50 [3] | Structure (SMILES) | Resistance, Folds, aFGF 0.3 ng/ml + bFGF 1 ng/ml | Resistance, Folds, aFGF 1 ng/ml + bFGF 3 ng/ml | pIC50 [4] | pIC50 [5] | pIC50 [6] | pIC50 (read-out: IC50, Control (drug treatment only, without FGF treatment), No suramin, drug 96 hours) | pIC50 (read-out: IC50, aFGF 0.3 ng/ml + bFGF 1 ng/ml, No suramin, FGF pretreatment 96 hours, drug 96 hours) | pIC50 (read-out: IC50, aFGF 1 ng/ml + bFGF 3 ng/ml, No suramin, FGF pretreatment 96 hours, drug 96 hours)
1 | 6.40 | 5.94 | 5.70 | COc1cc([C@@H]2c3cc4c(cc3[C@@H](O[C@@H]3O[C@@H]5CO[C@@H](c6cccs6)O[C@H]5[C@H](O)[C@H]3O)[C@H]3COC(=O)[C@H]23)OCO4)cc(OC)c1O [Teniposide] | 2.85 Folds | 4.95 Folds | 6.38 | 6.41 | 6.44 |  |  | 
2 |  |  |  | CC(O)CCC(=O)c1ccoc1 (centres unmarked) [4-Ipomeanol] | 0.92 Folds | 1.25 Folds | 2.35 | 2.30 | 2.41 | 2.39 | 2.42 | 2.29
3 | 5.74 | 5.63 | 5.47 | COc1cc([C@@H]2c3cc4c(cc3[C@@H](O[C@@H]3O[C@@H]5CO[C@@H](C)O[C@H]5[C@H](O)[C@H]3O)[C@H]3COC(=O)[C@H]23)OCO4)cc(OC)c1O [Etoposide] | 1.27 Folds | 1.85 Folds | 5.76 | 5.80 | 5.79 |  |  | 

Row | Structure (SMILES) | pIC50 [1] | pIC50 [2] | pIC50 [3] | Resistance, Folds, aFGF 0.3 ng/ml + bFGF 1 ng/ml | Resistance, Folds, aFGF 1 ng/ml + bFGF 3 ng/ml | pIC50 [4] | pIC50 [5] | pIC50 [6] | pIC50 (read-out: IC50, Control (drug treatment only, without FGF treatment), No suramin, drug 96 hours) | pIC50 (read-out: IC50, aFGF 0.3 ng/ml + bFGF 1 ng/ml, No suramin, FGF pretreatment 96 hours, drug 96 hours) | pIC50 (read-out: IC50, aFGF 1 ng/ml + bFGF 3 ng/ml, No suramin, FGF pretreatment 96 hours, drug 96 hours)
4 | O=P1(NCCCl)OCCCN1CCCl (centres unmarked) [Ifosfamide] | 5.58 | 5.30 | 5.09 | 1.88 Folds | 3.05 Folds | 5.65 | 5.65 | 5.59 |  |  | 
